The record followed here is patent US8017772B2, “Substituted tetrahydropyrrolopyrazine compounds and the use thereof in the treatment and/or inhibition of pain” (Gruenenthal GmbH, priority 2006, dated 2011).

One experiment deals with hKCNQ2/3 (Homo sapiens, UniProt O43525+O43526). The experiment in a line: Fluorescence assay using a voltage sensitive dye (BMG). Type of experiment: cell-based. As to conditions: agonistic activity at 10 μM, CHO-K1 cells expressing KCNQ2/3; read-out: BMG AG %@10 μm. As to the method:
11. Biological Data 12. Fluorescence Assay Using a Voltage Sensitive Dye
Human CHO-K1 cells expressing KCNQ2/3 channels are cultivated adherently at 37° C., 5% CO2 and 95% humidity in cell culture bottles (e.g. 80 cm^2 TC flasks, Nunc) with MEM Alpha Medium (1×, liquid, Invitrogen, #22571), 10% fetal calf serum (FCS) (Invitrogen, #10270-106, heat-inactivated) and the necessary selection antibiotics.
Before being sown out for the measurements, the cells are washed with a 1×DPBS buffer without Ca^2+/Mg^2+ (e.g. Invitrogen, #14190-094) and detached from the bottom of the culture vessel by means of Accutase (PAA Laboratories, #L11-007) (incubation with Accutase for 15 min at 37° C.). The cell count then present is determined using a CASY™ cell counter (TCC model, Schärfe System) in order subsequently to apply 20,000 cells/well/100 μl of the described nutrient medium to 96-well measuring plates of the Corning™ CellBIND™ type (Flat Clear Bottom Black Polystyrene Microplates, #3340). Incubation is then carried out for one hour at room temperature, without gassing or adjusting the humidity, followed by incubation for 24 hours at 37° C., 5% CO2 and 95% humidity.
The voltage-sensitive fluorescent dye from the Membrane Potential Assay Kit (Red™ Bulk format part R8123 for FLIPR, Molecular Devices™) is prepared by dissolving the contents of a vessel Membrane Potential Assay Kit Red Component A in 200 ml of extracellular buffer (ES buffer, 120 mM NaCl, 1 mM KCl, 10 mM HEPES, 2 mM CaCl2, 2 mM MgCl2, 10 mM glucose; pH 7.4). After removal of the nutrient medium, the cells are washed with 200 μl of ES buffer, then covered with a layer of 100 μl of the dye solution prepared above and incubated for 45 min at room temperature with the exclusion of light.
The fluorescence measurements are carried out with a BMG Labtech FLUOstar™ or BMG Labtech POLARstar™ instrument (525 nm excitation, 560 nm emission, Bottom Read mode). After incubation of the dye, […] of the test substances in the desired concentrations, or 50 μl of ES buffer for control purposes, are introduced into separate cavities of the measuring plate and incubated for 30 min at room temperature while being shielded from light. The fluorescence intensity of the dye is then measured for 5 min and the fluorescence value F1 of each well is thus determined at a given, constant time. 15 μl of a […] KCl solution ([…]) are then added to each well. The change in fluorescence is subsequently measured until all the relevant measured values have been obtained (mainly 5-30 min). At a given time after KCl application, a fluorescence value F2 is determined, in this case at the time of the fluorescence peak.
For calculation, the fluorescence intensity F2 is compared with the fluorescence intensity F1, and the agonistic activity of the target compound on the potassium channel is determined therefrom. F2 and F1 are calculated as follows:
[formula] In order to determine whether a substance has an agonistic effect,
[formula] for example, can be compared with
[formula] determined by adding to the reaction batch only the buffer solution instead of the substance to be tested, determining the value F1K of the fluorescence intensity, adding the potassium ions as described above and measuring a value F2K of the fluorescence intensity. Then F2K and F1K are calculated as follows: […]
A substance has an agonistic activity on the potassium channel when
[formula] is greater than
[formula] Independently of the comparison of
[formula] it is also possible to conclude that a target compound has agonistic activity if an increase in
[formula] is to be observed as the dosage of the target compound increases. Calculations of EC50 and IC50 values are carried out with the aid of “Prism 4” software (GraphPad Software™). The following compounds were tested by way of example: […]

The subject of experiment [1] is neuropathic pain (cold allodynia). The experiment in a line: Bennett model: neuropathic pain (chronic constriction injury, cold allodynia). The class given is in vivo, mouse or rat. As to conditions: i.v. administration, dose 10 mg/kg. As to the method: Bennett Model: Neuropathic Pain in the Mouse and in the Rat The study of activity in neuropathic pain was carried out in the Bennett model (chronic constriction injury; Bennett and Xie, 1988, Pain 33: 87-107). Sprague-Dawley rats weighing 140-160 g are provided, under Narcoren narcosis, with four loose ligations of the right nervus ischiaticus. NMRI mice weighing 16-18 g are provided, under Ketavet-Rompun narcosis, with three loose ligations of the right nervus ischiaticus. The animals develop hypersensitivity of the paw innervated by the damaged nerve, and after a one-week recovery phase, the hypersensitivity is quantified over a period of about four weeks by means of a 4° C. cold metal plate (cold allodynia). The animals are observed on the plate for a period of 2 min and the number of reactions of pulling away the damaged paw is measured. […] The size of the group is n=10, the significance of an anti-allodynic action (*=p<0.05) is determined by means of a variance analysis with repeated measurement and a post hoc analysis according to Bonferroni.

The test system of experiment [2] is mononeuropathic pain (mechanical allodynia). The experiment in a line: Chung model: mononeuropathic pain after spinal nerve ligation (mechanical allodynia). The class given is in vivo, Sprague-Dawley rats. Conditions: Rattus norvegicus, iv; i.v. administration. Here is the method: Chung Model: Mononeuropathic Pain after Spinal Nerve Ligation
Animals: Male Sprague-Dawley rats (140-160 g) from a commercial breeder (Janvier, Genest St. Isle, France) were kept under a 12:12 h light-dark rhythm. The animals received food and tap water ad libitum. A period of one week was observed between delivery of the animals and the operation. After the operation, the animals were tested several times over a period of 4-5 weeks, a washing-out time of at least one week being observed. Description of the model: Under pentobarbital narcosis (Narcoren®, 60 mg/kg i.p., Merial GmbH, Hallbergmoos, Germany), the left L5, L6 spinal nerves were exposed by removing a section of the paravertebral muscle and a section of the left spinous process of the L5 lumbar vertebral body. […] The pull-back threshold was measured on the ipsi- and/or contra-lateral rear paw by means of an electronic from Frey Filamentes (Somedic A B, Malmö, Sweden). […] The data were determined as % maximum possible effect (% MPE) from the preliminary tests on the individual animals (=0 MPE) and the test values of an independent sham control group (=100% MPE). […] The data were analyzed by variance analysis with repeated measurements and a post hoc analysis according to Bonferroni. […]

A word on the ED50: it is the dose at which the effect has come halfway, by size or by number of responders. A lower ED50 goes with an effect at a small dose.

For the compound `O=C(CCC(=O)N1CCn2cccc2C1c1ccccc1)NCc1cccc(C(F)(F)F)c1` (stereo not drawn) [Example 2, 4-oxo-4-(1-phenyl-3,4-dihydro-1H-pyrrolo[1,2-a]pyrazin-2-yl)-N-(3-trifluoromethyl-benzyl)-butyramide], on hKCNQ2/3, the activation at 10 µM turned out to be 84%. Moreover, the “% MPE in the Bennett model” value in experiment [1] is 40 % MPE. The same compound came in with an ED50 in experiment [2] of 2.8 mg/kg.
